The numbers were not newly measured in US8173686B2, “Use of picoplatin to treat colorectal cancer” (priority 2006, dated 2012), which cites them from elsewhere.

For this data set the following is noted: in vivo.

As for `N.N.O=C([O-])C1(C(=O)[O-])CCC1.[Pt+2]` [carboplatin], the “main / dose-limiting toxicity” value is listed as “myelosuppression”.
